Results: patent US8198231B2, “Compositions and methods for treatment of staphylococcal infection while suppressing formation of antibiotic-resistant strains” (priority 1999, dated 2012)

What was measured:
[1] = test system: strains 27619, Col, 27227 and VA348; test: Checkerboard susceptibility testing of lysostaphin and oxacillin; assay type: cell-based; details: oxacillin in concentrations up to 1 μg/ml; all strains tested
Description: Checkerboard susceptibility testing was conducted to determine whether simultaneous administration of lysostaphin and oxacillin (a β-lactam) would be effective in suppressing the development of resistance. Oxacillin concentrations varied between 0.0156 μg/ml and 1 μg/ml. Lysostaphin concentrations varied between 0.00048 and 0.9 μg/ml. Four strains were tested for evidence of synergy between lysostaphin and oxacillin; 27619, Col, 27227 and VA348.

[2] = test system: staphylococcal infected rabbits; test: Rabbit model of aortic valve endocarditis; assay type: in vivo
Excerpt: The simultaneous treatment of staphylococcal infection with suppression of resistant strain formation is an exciting and widely useful invention nowhere predicted in the art. This invention offers the possibility of treating staphylococcal infections while suppressing the generation of strains resistant to any or all active agents administered.

[3] = lysostaphin 1 mg/kg bid (low dose), alone or together with nafcillin

In the case of lysostaphin, the “MIC of lysostaphin in the presence of oxacillin” value [1] is reported as “unchanged”, the “Bacterial counts in kidneys” value [2, 3] is reported as “high counts” and the “Bacterial counts in vegetations” value [2, 3] is reported as “high counts”. For the same substance, the “Recovery of resistant colonies/strains” value [2, 3] was “recovery of a number of resistant colonies” and the “Minimum dose for sterilization” value ([2]; lysostaphin alone) was 5 mg/kg tid.
